# Patent US20140309295A1, “ANTIEPILEPTIC, HYPOCHOLESTEROLEMIC AND NEUROPROTECTIVE COMPOUND” (NEURON BIOPHARMA, S.A., priority 2009, published 2014)
# Legend:
# [1] = test system: SK-N-MC (human neuroblastoma) line; experiment: Total cholesterol levels in neuronal cell line; format: cell-based; details: acid compounds, 20 hours, absence of FBS
# Method: To carry out this assay, the compounds were activated with NaOH until the lactone form was completely opened.
# Both the Hep G2 (human hepatocarcinoma) line and the SK-N-MC (human neuroblastoma) line were obtained from the American Type Culture Collection (ATCC no. HB-8065 and HTB-10 respectively). In all cases strict rules of sterility were followed and the manipulation was performed in class II biological safety cabinets following European standard EN 12469. The cells maintained in passage were seeded in 96-well plates in MEM supplemented with 10% FBS, 2 mM L-glutamine, 1 mM sodium pyruvate, 0.1 mM non-essential amino acids and 0.05 mg/mL gentamicin. In the case of HepG2, 4×10^4 cells/well were seeded and in the case of SK-N-MC 5×10^4 cells/well were seeded. After 24 hours had elapsed from the seeding, the cells were deprived of FBS for 8 hours. The cells were then incubated with the treatments at various concentrations for 20 hours. After the incubation period, the cells were washed with PBS and lysed with a phosphate buffer with 0.5% Triton X-100. […]
# The total cholesterol was quantified by means of enzymatic and fluorometric techniques. […] The fluorescence intensity was determined at 530 nm of excitation and 580 nm of emission by means of a fluorometer. The results were normalized by protein, which was determined by means of the BCA technique.
# [2] = test system: Candida albicans CECT 1002; experiment: Fungicidal activity bioassay (growth inhibition halos); format: cell-based; details: β-hydroxy acid form
# Method: The fungicidal activity of NST0037 was analyzed by means of bioassay against Candida albicans. […] The assayed concentrations were the following: 2, 1.5, 1, 0.5, 0.25, 0.125, 0.06, 0.025 and 0.01 mM. Plates of MA medium (containing per liter: 20 g malt extract, 20 g glucose, 1 g mycopeptone and 10 g agar) previously inoculated with a culture of Candida albicans CECT (Spanish Type-Culture Collection) 1002 were prepared. With aid of a die (6 mm in diameter) various wells were prepared in which 40 μL of the previous solutions were deposited. The study was performed in triplicate and triplicates for each compound and concentration were included in each plate. The plates were kept at 4° C. for 1 hour and were subsequently incubated at 28° C. overnight. The presence of antifungal activity was determined by means of the formation of C. albicans growth inhibition halos.
# [3] = test system: FVB/NHan mice inoculated with kainate (KA); experiment: Integral memory test (temporal and spatial memory) in mice after kainate; format: in vivo
# Method: (§1) All the animals included for the experimental process were 12-week old males of the FVB/NHan strain. The experiments were conducted strictly following the Guidance on the Operation of Animals (Scientific Procedures, Act. 1986). The animals had their respective quarantine period and were treated with maximum precaution to minimize possible contaminations for inoculations and handling.
# Twenty-eight animals were used in this assay and the treatments were all conducted by intraperitoneal (i.p.) route with a volume of 100 μl, according to the following regimens: • i) PBS+PBS+PBS regimen: 4 animals were initially treated with PBS with a daily dose for 2 days, on the second day the animals were inoculated with a new dose of PBS and for the following 3 days with a daily dose of PBS. • ii) PBS+KA+PBS regimen: 6 animals were initially treated with PBS with a daily dose for 2 days, on the second day the animals were inoculated with a dose of kainate at 25 mg/Kg and for the following 3 days with a daily dose of PBS. • iii) PBS+KA+NST0037 regimen: 7 animals were initially treated with PBS with a daily dose for 2 days, on the second day the animals were inoculated with a dose of kainate at 25 mg/Kg and for the following 3 days with a daily dose of NST0037 at 50 mg/kg. • iv) NST0037+KA+NST0037 regimen: 6 animals were initially treated with a daily dose for 2 days with NST0037 at 50 mg/kg, on the second day the animals were inoculated with a dose of kainate at 25 mg/Kg and for the following 3 days with a daily dose of NST0037 at 50 mg/kg. • v) NST0037+PBS+NST0037 regimen: 5 animals were initially treated with a daily dose for 2 days with NST0037 at 50 mg/kg, on the second day the animals were inoculated with a dose of PBS and for the following 3 days with a daily dose of NST0037 at 50 mg/kg.
# Three days after inoculation of KA, an object recognition test called integral memory test was performed on the animals.
# [4] = test system: ApoB100 mice; experiment: Hypocholesterolemic effect in endogenous hyperlipidemia model, single i.p. dose; format: in vivo; details: 50 mg/kg i.p., 12 hours
# Method: as §1, with “46-week” for “12-week”, “ApoB100 strain, which strain has a deficiency in removing cholesterol from the blood which causes an abnormally high increase of plasma cholesterol.” for “FVB/NHan strain.”
# In order to conduct the experiment on the fasting animals, blood was extracted by ocular puncture. The plasma was obtained from said blood, in which plasma total cholesterol levels and levels of its fractions were determined prior to administration of the substances under study. Immediately after that, the animals were intraperitoneally inoculated with 50 mg/kg of each of the test compounds. Four animals were treated with the vehicle and were considered the control group. […] Finally, a third group of five mice received 50 mg/Kg of NST0037. Twelve hours after the treatments, blood was again extracted from the fasting animals and the plasma was obtained from said blood.
compound,measurement,setting,value
"CCC(CC)C(=O)O[C@H]1C[C@@H](C)C=C2C=C[C@H](C)[C@H](CC[C@@H]3C[C@@H](O)CC(=O)O3)[C@H]21 [NST0037, (1S,2S,6R,8S,8aR)-1,2,6,7,8,8a-hexahydro-3,7-dimethyl-8-[2-[(2R,4R)-tetrahydro-4-hydroxy-6-oxo-2H-pyran-2-yl]ethyl]-1-naphthalenyl-2-ethyl-butyrate]",reduction of total cholesterol levels,[1],reductions of cholesterol with both compounds were similar
same,inhibition halos at lower concentrations,[2]; 0.06 and 0.025 mM,the only one capable of causing inhibition halos
same,antifungal activity (inhibition halos),[2]; 2 to 0.01 mM,higher antifungal activity than the statins included in the assay
same,spatial memory,"[3]; NST0037+KA+NST0037 regimen, 50 mg/kg i.p.",spatial memory is intact
same,temporal memory,"[3]; NST0037+KA+NST0037 regimen, 50 mg/kg i.p., 3 days after KA",prevented the reduction in the temporal memory capacity
same,spatial memory,[3]; NST0037+PBS+NST0037 regimen,spatial memory is intact
same,temporal memory,"[3]; NST0037+PBS+NST0037 regimen, vs PBS+PBS+PBS",improvement of the temporal memory
same,spatial memory,"[3]; PBS+KA+NST0037 regimen, 50 mg/kg i.p.",improvement of this type of memory
same,temporal memory,"[3]; PBS+KA+NST0037 regimen, 50 mg/kg i.p., 3 days after KA",improvement of the state of the temporal memory
same,HDL-c levels,[4],without changing
same,LDL-c levels,[4],considerably reduced
same,VLDL-c levels,[4],considerably reduced
same,esterified cholesterol (EC) levels,[4],reduced the EC levels in a similar manner
same,free cholesterol (FC) levels,[4],without changing FC levels
same,plasma total cholesterol levels,[4]; male ApoB100 mice,significant hypocholesterolemic effect
